Reference: US20240059703A1 (AMGEN INC., priority 2021, published 2024)

What was measured:
KRAS G12C = KRAS G12C (Homo sapiens (Human), UniProt P01116, C118A/G12C); assay: 2 h coupled exchange assay; type: biochemical; details: Avg 2 h Coupled exchange IC50, 2 h compound pre-incubation
Protocol: The term “2 h coupled exchange assay” or “20 h coupled exchange assay” as used herein refers to the assay described in the Section entitled “BIOLOGICAL EVALUATION.”

[1] = tested on: MIA PaCa-2 (human pancreatic carcinoma) cells; assay: Cell Viability Assay (CellTiter-Glo), MIA PaCa-2; type: cell-based
Protocol: Serially-diluted compound or DMSO was added to the cells, and plates were incubated at 37° C., 5% CO2 for 72 h. Cell viability was measured using a CellTiter-Glo® Luminescent Cell Viability Assay kit (Promega) according to the manufacturer's protocol. The luminescence signal of treated samples was normalized to DMSO control, and data were analyzed using a 4-parameter logistic model to calculate IC50 values.

[2] = tested on: A549 (human lung carcinoma) cells; assay: Cell Viability Assay (CellTiter-Glo), A549; type: cell-based
How it was run: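 RPMI 1640/10% FBS; seed 1.67E+04 cells/mL, o/n 37° C., 5% CO2; serial-dilution cmpd 72 h; CellTiter-Glo luminescence vs DMSO; 4-parameter logistic fit → IC50.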

[3] = SOS-mediated nucleotide exchange

Sequence of KRAS G12C (P01116 other isoform, or with tags, fused parts or gaps G12C/C118A): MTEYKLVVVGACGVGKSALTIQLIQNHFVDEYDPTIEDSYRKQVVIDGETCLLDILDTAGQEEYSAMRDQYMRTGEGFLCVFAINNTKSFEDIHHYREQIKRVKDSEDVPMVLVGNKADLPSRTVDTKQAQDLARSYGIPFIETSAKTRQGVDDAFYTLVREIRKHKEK

C=CC(=O)N1CC2(CCN(c3nc4c(c(-c5cc(O)ccc5Cl)c3C#N)CN(Cc3scnc3C)C4)C2)C1 [Example 21-12, 4-(2-chloro-5-hydroxyphenyl)-6-((4-methyl-1,3-thiazol-5-yl)methyl)-2-(2-(2-propenoyl)-2,6-diazaspiro[3.4]octan-6-yl)-6,7-dihydro-5H-pyrrolo[3,4-b]pyridine-3-carbonitrile]
IC50 (KRAS G12C): 393 nM
IC50 ([1]; Homo sapiens, MIA PaCa-2, 72 h): 5400 nM
IC50 ([2]; Homo sapiens, A549, 72 h): > 25000 nM

C=CC(=O)N1CC2(CCN(c3nc4c(c(-c5c(C)ccc6[nH]ncc56)c3C#N)COC3(CCC3)C4)C2)C1 [Example 13-98, 2′-(2-acryloyl-2,6-diazaspiro[3.4]octan-6-yl)-4′-(5-methyl-1H-indazol-4-yl)-5′,8′-dihydrospiro[cyclobutane-1,7′-pyrano[4,3-b]pyridine]-3′-carbonitrile]
IC50 (KRAS G12C; [3]): 51 nM
IC50 ([1]; Homo sapiens, MIA PaCa-2, 72 h): 103 nM
IC50 ([2]; Homo sapiens, A549, 72 h): > 5000 nM

C=CC(=O)N1CC2(CCN(c3nc4c(c(-c5cccc6cc(O)ccc56)c3C)COC(C)(C)C4)C2)C1 [Example 14-43, 1-(6-(4-(6-hydroxy-1-naphthalenyl)-3,7,7-trimethyl-7,8-dihydro-5H-pyrano[4,3-b]pyridin-2-yl)-2,6-diazaspiro[3.4]octan-2-yl)-2-propen-1-one]
IC50 (KRAS G12C): 110 nM
IC50 ([1]; Homo sapiens, MIA PaCa-2, 72 h): 136 nM
IC50 ([2]; Homo sapiens, A549, 72 h): > 5000 nM

C=CC(=O)N1CC2(CCN(c3nc4c(c(-c5c(C)ccc6[nH]ncc56)c3C#N)C[C@H]3C[C@@H]4C3(C)C)C2C)C1 (stereo partly drawn) [Example 13-94, (1R,9R)-10,10-dimethyl-6-(5-methyl-1H-indazol-4-yl)-4-((5R)-5-methyl-2-(2-propenoyl)-2,6-diazaspior[3.4]octan-6-yl)-3-azatricyclo[7.1.1.0^2,7]undeca-2,4,6-triene-5-carbonitrile|(1R,9R)-10,10-dimethyl-6-(5-methyl-1H-indazol-4-yl)-4-((5S)-5-methyl-2-(2-propenoyl)-2,6-diazaspiro[3.4]octan-6-yl)-3-azatricyclo[7.1.1.0^2,7]undeca-2,4,6-triene-5-carbonitrile]
IC50 (KRAS G12C; [3]): 51 nM
IC50 ([1]; Homo sapiens, MIA PaCa-2, 72 h): 42 nM
IC50 ([2]; Homo sapiens, A549, 72 h): > 5000 nM

C=CC(=O)N1CC2(CCN(c3nc4c(c(-c5cccc6cc(O)ccc56)c3C)CCC(C)(C)C4)C2)C1 [Example 2-13, 1-(6-(4-(6-hydroxy-1-naphthalenyl)-3,7,7-trimethyl-5,6,7,8-tetrahydro-2-quinolinyl)-2,6-diazaspiro[3.4]octan-2-yl)-2-propen-1-one]
IC50 (KRAS G12C; [3]): 150 nM
IC50 ([1]; Homo sapiens, MIA PaCa-2, 72 h): 403 nM
IC50 ([2]; Homo sapiens, A549, 72 h): > 5000 nM

C=CC(=O)N1CC2(CCN(c3nc4c(c(-c5ccc(F)cc5Cl)c3C#N)CCC(c3scnc3C)=C4)C2)C1 (atropisomer, axis not shown; (P)) [Example 23-33, (P)-4-(2-chloro-4-fluorophenyl)-7-(4-methyl-1,3-thiazol-5-yl)-2-(2-(2-propenoyl)-2,6-diazaspiro[3.4]octan-6-yl)-5,6-dihydro-3-quinolinecarbonitrile]
IC50 (KRAS G12C): 101 nM
IC50 ([1]; 72 h): 606 nM
IC50 ([2]; 72 h): > 5000 nM

C=CC(=O)N1CC2(CCN(c3nc4c(c(-c5c(C)ccc6cnn(C)c56)c3C#N)CCC(C)(C)C4)C2)C1 (single isomer, unassigned) [Example 13-150, 4-(1,6-dimethyl-1H-indazol-7-yl)-7,7-dimethyl-2-(2-(2-propenoyl)-2,6-diazaspiro[3.4]octan-6-yl)-5,6,7,8-tetrahydro-3-quinolinecarbonitrile]
IC50 (KRAS G12C; [3]): 2900 nM
IC50 ([1]; 72 h): 4020 nM
IC50 ([2]; 72 h): 6730 nM

C=CC(=O)N1CC2(CCN(c3nc(-c4ccccc4F)c4ccn([C@H](CC(=O)NC)CC(C)C)c4n3)C2)C1 (single isomer, unassigned) [Example 11]
IC50 (KRAS G12C; [3]): 1940 nM
IC50 ([1]; Homo sapiens, MIA PaCa-2, 72 h): 1160 nM
IC50 ([2]; Homo sapiens, A549, 72 h): 12600 nM

C=CC(=O)N1CC2(CCN(c3nc4c(F)cccc4c(-c4c(C)ccc5[nH]ncc45)c3C#N)C2)C1 [Example 1-4, 8-fluoro-4-(5-methyl-1H-indazol-4-yl)-2-(2-(2-propenoyl)-2,6-diazaspiro[3.4]octan-6-yl)-3-quinolinecarbonitrile]
IC50 (KRAS G12C; [3]): 290 nM
IC50 ([1]; Homo sapiens, MIA PaCa-2, 72 h): 1390 nM
IC50 ([2]; Homo sapiens, A549, 72 h): 4940 nM

C=CC(=O)N1CC2(CCN(c3nc4c(c(-c5c(C)ccc6[nH]ncc56)c3C#N)COC(C(F)(F)F)C4)C2)C1 (stereo not drawn) [Example 13-99]
IC50 (KRAS G12C; [3]): 180 nM
IC50 ([1]; Homo sapiens, MIA PaCa-2, 72 h): 1430 nM
IC50 ([2]; Homo sapiens, A549, 72 h): > 5000 nM

C=CC(=O)N1CC2(CCN(c3nc4c(c(-c5c(C)ccc6[nH]ncc56)c3C#N)C3CC3C4)C2)C1 (stereo not drawn) [Example 13-82]
IC50 (KRAS G12C; [3]): 66 nM
IC50 ([1]; Homo sapiens, MIA PaCa-2, 72 h): 462 nM
IC50 ([2]; Homo sapiens, A549, 72 h): > 5000 nM

C=CC(=O)N1CC2(CCN(c3nc4c(c(-c5ccccc5F)c3C#N)CCN(C(=O)[C@@H]3CCCN3C)C4)C2)C1 [Example 21-34, 4-(2-fluorophenyl)-7-(1-methyl-L-prolyl)-2-(2-(2-propenoyl)-2,6-diazaspiro[3.4]octan-6-yl)-5,6,7,8-tetrahydro-1,7-naphthyridine-3-carbonitrile]
IC50 (KRAS G12C): 911 nM
IC50 ([1]; Homo sapiens, MIA PaCa-2, 72 h): 6290 nM
IC50 ([2]; Homo sapiens, A549, 72 h): > 25000 nM

C=CC(=O)N1CC2(CCN(c3nc4cc(-c5cncs5)ccc4c(-c4ccccc4F)c3C#N)C2)C1 [Example 20-19, 4-(2-fluorophenyl)-2-(2-(2-propenoyl)-2,6-diazaspiro[3.4]octan-6-yl)-7-(1,3-thiazol-5-yl)-3-quinolinecarbonitrile]
IC50 (KRAS G12C): 325 nM
IC50 ([1]; Homo sapiens, MIA PaCa-2, 72 h): 2070 nM
IC50 ([2]; Homo sapiens, A549, 72 h): 4770 nM

C=CC(=O)N1CC2(CCN(c3nc4c(c(-c5ncccc5F)c3C#N)CCN(c3scnc3C)C4)C2)C1 [Example 21-10, 4-(3-fluoro-2-pyridinyl)-7-(4-methyl-1,3-thiazol-5-yl)-2-(2-(2-propenoyl)-2,6-diazaspiro[3.4]octan-6-yl)-5,6,7,8-tetrahydro-1,7-naphthyridine-3-carbonitrile]
IC50 (KRAS G12C): 189 nM
IC50 ([1]; Homo sapiens, MIA PaCa-2, 72 h): 716 nM
IC50 ([2]; Homo sapiens, A549, 72 h): > 5000 nM

C=CC(=O)N1CC2(CCN(c3nc4c(c(-c5cc(O)ccc5C)c3F)C[C@H]3C[C@@H]4C3(C)C)C2)C1 [Example 14-50, 1-(6-((1R,9R)-5-fluoro-6-(5-hydroxy-2-methylphenyl)-10,10-dimethyl-3-azatricyclo[7.1.1.0^2,7]undeca-2,4,6-trien-4-yl)-2,6-diazaspiro[3.4]octan-2-yl)-2-propen-1-one]
IC50 (KRAS G12C): 65 nM
IC50 ([1]; Homo sapiens, MIA PaCa-2, 72 h): 1610 nM
IC50 ([2]; Homo sapiens, A549, 72 h): > 5000 nM

C=CC(=O)N1CC2(CCN(c3nc4c(c(-c5ccc(F)cc5F)c3C)CCN(c3scnc3C)C4)C2)C1 [Example 18-12, 1-(6-(4-(2,4-difluorophenyl)-3-methyl-7-(4-methyl-1,3-thiazol-5-yl)-5,6,7,8-tetrahydro-1,7-naphthyridin-2-yl)-2,6-diazaspiro[3.4]octan-2-yl)-2-propane-1-one]
IC50 (KRAS G12C): 172 nM
IC50 ([1]; Homo sapiens, MIA PaCa-2, 72 h): 335 nM
IC50 ([2]; Homo sapiens, A549, 72 h): 12500 nM

C=CC(=O)N1CC2(CCN(c3nc4c(c(-c5cccc(OC)c5F)c3C#N)CCC(c3scnc3C)=C4)C2)C1 [Example 23-44, 4-(2-fluoro-3-methoxyphenyl)-7-(4-methyl-1,3-thiazol-5-yl)-2-(2-(2-propenoyl)-2,6-diazaspiro[3.4]octan-6-yl)-5,6-dihydro-3-quinolinecarbonitrile]
IC50 (KRAS G12C): 687 nM
IC50 ([1]; Homo sapiens, MIA PaCa-2, 72 h): 3100 nM
IC50 ([2]; Homo sapiens, A549, 72 h): 5860 nM

C=CC(=O)N1CC2(CCN(c3nc4c(c(-c5ccccc5Cl)c3C#N)CC[C@H](c3ccnn3C)C4)C2)C1 [Example 13-21, (7S)-4-(2-chlorophenyl)-7-(1-methyl-1H-pyrazol-5-yl)-2-(2-(2-propenoyl)-2,6-diazaspiro[3.4]octan-6-yl)-5,6,7,8-tetrahydro-3-quinolinecarbonitrile]
IC50 (KRAS G12C; [3]): 62 nM
IC50 ([1]; Homo sapiens, MIA PaCa-2, 72 h): 615 nM
IC50 ([2]; Homo sapiens, A549, 72 h): > 5000 nM

C=CC(=O)N1CC2(CCN(c3cn4c(C)cnc4c(-c4c(C)ccc5[nH]ncc45)c3C#N)C2)C1 [Example 1-37, 3-methyl-8-(5-methyl-1H-indazol-4-yl)-6-(2-(2-propenoyl)-2,6-diazaspiro[3.4]octan-6-yl)imidazo[1,2-a]pyridine-7-carbonitrile]
IC50 (KRAS G12C; [3]): 402 nM
IC50 ([1]; Homo sapiens, MIA PaCa-2, 72 h): 2280 nM
IC50 ([2]; Homo sapiens, A549, 72 h): > 25000 nM

C=CC(=O)N1CC2(CCN(c3nc4c(c(-c5cccc(C)c5C)n3)CCCC4)C2)C1 [Example 1-26, 1-(6-(4-(2,3-dimethylphenyl)-5,6,7,8-tetrahydro-2-quinazolinyl)-2,6-diazaspiro[3.4]octan-2-yl)-2-propen-1-one]
IC50 (KRAS G12C; [3]): 3980 nM
IC50 ([1]; Homo sapiens, MIA PaCa-2, 72 h): 9820 nM
IC50 ([2]; Homo sapiens, A549, 72 h): 13800 nM

C=CC(=O)N1CC2(CCN(c3nc4c(c(-c5ccccc5C)c3C#N)CCC(c3scnc3C)=C4)C2)C1 (single isomer, unassigned) [Example 23-24, (P)-4-(2-methylphenyl)-7-(4-methyl-1,3-thiazol-5-yl)-2-(2-(2-propenoyl)-2,6-diazaspiro[3.4]octan-6-yl)-5,6-dihydro-3-quinolinecarbonitrile]
IC50 (KRAS G12C): 71 nM
IC50 ([1]; 72 h): 705 nM
IC50 ([2]; 72 h): > 5000 nM

C=CC(=O)N1CC2(CCN(c3nc4c(c(-c5c(C)ccc6cnn(C)c56)c3C#N)CC(C)(C)C4)C2)C1 (single isomer, unassigned) [Example 13-18, (P)-4-(1,6-dimethyl-1H-indazol-7-yl)-6,6-dimethyl-2-(2-(2-propenoyl)-2,6-diazaspiro[3.4]octan-6-yl)-6,7-dihydro-5H-cyclopenta[b]pyridine-3-carbonitrile]
IC50 (KRAS G12C; [3]): 26 nM
IC50 ([1]; Homo sapiens, MIA PaCa-2, 72 h): 180 nM
IC50 ([2]; Homo sapiens, A549, 72 h): > 5000 nM
